Data as given in PMC11270734 (ACS Omega, 2024).

Key:
[1] = tested on: chloroquine-sensitive P. falciparum (3D7 strain); format: cell-based; conditions: Plasmodium falciparum, 3D7, 48 h, read-out: MEAN IC50 ± SE
Cytotoxicity, MTT assay = format: cell-based; conditions: human, HEK-293 cells

SMILES | IC50 [1] | CC50 at 72 h (Cytotoxicity, MTT assay)
CCCCC1(C)OOC2(CCN(C(=O)c3ccccc3)CC2)OO1 [3j] | 17.5 ± 1.24 nM | > 100 µg/mL
CC(C)CC1(C)OOC2(CCN(C(=O)c3ccccc3)CC2)OO1 [3k] | 18.9 ± 2.12 nM | > 100 µg/mL
CCCC1(C)OOC2(CCN(C(=O)c3ccccc3)CC2)OO1 [3g] | 43.4 ± 2.38 nM | > 100 µg/mL
CCCC1(CCC)OOC2(CCN(C(=O)c3ccccc3)CC2)OO1 [3o] | 17.3 ± 1.78 nM | > 100 µg/mL
CC1(c2ccc(Cl)cc2)OOC2(CCN(C(=O)c3ccccc3)CC2)OO1 [3q] | 11.8 ± 0.8 nM | > 100 µg/mL
CC1(c2ccc(C#N)cc2)OOC2(CCN(C(=O)c3ccccc3)CC2)OO1 [3r] | 15.7 ± 0.78 nM | > 100 µg/mL
O=Cc1ccc(C(=O)N2CCC3(CC2)OOC2(OO3)C3CC4CC(C3)CC2C4)cc1 [3u] | 6.35 ± 0.55 nM | > 100 µg/mL
C[C@@H]1CC[C@H]2[C@@H](C)C(=O)O[C@@H]3O[C@@]4(C)CC[C@@H]1[C@]32OO4 [artemisinin, reference compound] |  | > 100 µg/mL
CC1(c2ccccc2)OOC2(CCN(C(=O)c3ccccc3)CC2)OO1 [3p] | 16.3 ± 0.93 nM | > 100 µg/mL
CCC1(C)OOC2(CCN(C(=O)c3ccccc3)CC2)OO1 [3f] | 42.5 ± 3.04 nM | > 100 µg/mL
CC1(C)OOC2(CCN(C(=O)c3ccccc3)CC2)OO1 [3e] | 29.9 ± 1.28 nM | > 100 µg/mL
CCC1(CC)OOC2(CCN(C(=O)c3ccccc3)CC2)OO1 [3m] | 17.5 ± 1.59 nM | > 100 µg/mL
O=C(c1ccccc1)N1CCC2(CC1)OOC1(CCCCC1)OO2 [3b] | 17.9 ± 1.96 nM | > 100 µg/mL
CCCCCC1(C)OOC2(CCN(C(=O)c3ccccc3)CC2)OO1 [3l] | 16.7 ± 1.93 nM | > 100 µg/mL
CC(C)C1(C)OOC2(CCN(C(=O)c3ccccc3)CC2)OO1 [3h] | 41.2 ± 2.33 nM | > 100 µg/mL
O=C(c1ccccc1)N1CCC2(CC1)OOC1(CCCCCC1)OO2 [3c] | 21.9 ± 1.79 nM | > 100 µg/mL
O=C(c1ccccc1)N1CCC2(CC1)OOC1(OO2)C2CC3CC(C2)CC1C3 [3d] | 7.28 ± 0.57 nM | > 100 µg/mL
